As a reminder, the IC50 is the point on the concentration scale where inhibition reaches its midpoint.

Experiment [1] deals with human pleural mesothelioma cells NCI-H226. The experiment can be described thus: Cell anti-proliferation experiment (CCK8), NCI-H226. It is filed as cell-based. An outline of the steps:
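Viability was measured by CCK-8 (3 h, A450) after 3-day treatment with 0.15–333.33 nM compound in 0.1% DMSO medium. Curve-fitted IC50 was based on viability normalised to no-drug and cell-free controls.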

Another experiment deals with YAP-TEAD. Nature of the experiment: YAP-TEAD inhibitor activity by Nano luciferase method (8xGTiiC-nLuc reporter in 293T cells). The class given is cell-based. The settings on record: Homo sapiens, HEK-293T, 48 hours incubation, read-out: Nano-luciferase detection (IC50). The procedure, abridged:
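293T cells transiently transfected with pGL3B-8xGTiiC-nLuc-CMV-fLuc, seeded 2000 cells/well, then treated 48 h at 37 °C with compounds in 1:3.16 dilution series (top 10,000 nM). Nano luciferase signal read after cell lysis; IC50 from percent of 0 nM control.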

Molecules are shown by their SMILES.

Turning to `Cn1cc2c(=O)n(-c3ccc(C(F)(F)F)cc3)c3ccc(NC(=O)C(F)(F)F)cc3c2n1` [Example T-174], the IC50 (in experiment [1]; in the experiment on YAP-TEAD) was at most 1000 nM throughout.
As to `CC(=O)Nc1ccc2c(c1)c1nn(C)cc1c(=O)n2-c1ccc(C(F)(F)F)cc1` [Example T-175], the IC50 (in experiment [1]; in the experiment on YAP-TEAD) was at most 1000 nM throughout.
Turning to `CN(C)C/C=C/C(=O)Nc1ccc2c(c1)c1nn(C)cc1c(=O)n2-c1ccc(C(F)(F)F)cc1` [Example T-176], the IC50 (in experiment [1]; in the experiment with YAP-TEAD) was at most 1000 nM in each case.
For `Cn1cc2c(=O)n(-c3ccc(C(F)(F)F)cc3)c3ccc(NC(=O)/C=C/CN4CCCCC4)cc3c2n1` [Example T-177], the IC50 (in experiment [1]; in the experiment with YAP-TEAD) was at most 1000 nM each time.
Turning to `Cn1cc2c(=O)n(-c3ccc(C(F)(F)F)cc3)c3ccc(NC(=O)/C=C/CN4CCOCC4)cc3c2n1` [Example T-178], the IC50 (in experiment [1]; in the experiment with YAP-TEAD) was at most 1000 nM in each case.
Consider `Cn1cc2c(=O)n(-c3ccc(C(F)(F)F)cc3)c3ccc(NC(=O)/C=C/CN4CCCC4)cc3c2n1` [Example T-179], for which the IC50 (in experiment [1]; in the experiment on YAP-TEAD) was at most 1000 nM each time.
Take `COC(=O)Nc1ccc2c(c1)c1nn(C)cc1c(=O)n2-c1ccc(C(F)(F)F)cc1` [Example T-180]: the IC50 (in experiment [1]; with YAP-TEAD) was at most 1000 nM in each case.
On to `CNC(=O)Nc1ccc2c(c1)c1nn(C)cc1c(=O)n2-c1ccc(C(F)(F)F)cc1` [Example T-181], for which the half-maximal inhibitory concentration (IC50) (in experiment [1]; with YAP-TEAD) was at most 1000 nM each time.
Consider `CN(C)C(=O)Nc1ccc2c(c1)c1nn(C)cc1c(=O)n2-c1ccc(C(F)(F)F)cc1` [Example T-182], for which the IC50 (in experiment [1]; in the experiment with YAP-TEAD) was at most 1000 nM in each case.
With `Cn1cc2c(=O)n(-c3ccc(C(F)(F)F)cc3)c3ccc(NC(N)=O)cc3c2n1` [Example T-183], the IC50 (in experiment [1]; in the experiment with YAP-TEAD) was at most 1000 nM throughout.
For `Cn1cc2c(=O)n(-c3ccc(C(F)(F)F)cc3)c3ccc(NC(=O)N4CCCC4)cc3c2n1` [Example T-184], the IC50 (in experiment [1]; in the experiment with YAP-TEAD) was at most 1000 nM each time.
For the compound `Cn1cc2c(=O)n(-c3ccc(C(F)(F)F)cc3)c3ccc(NC(=O)N4CCCCC4)cc3c2n1` [Example T-185], the IC50 (in experiment [1]; in the experiment on YAP-TEAD) was at most 1000 nM throughout.
For `Cn1cc2c(=O)n(-c3ccc(C(F)(F)F)cc3)c3ccc(NS(=O)(=O)c4ccccc4)cc3c2n1` [Example T-186], the IC50 (in experiment [1]; in the experiment with YAP-TEAD) was at most 1000 nM each time.
For `Cn1cc2c(=O)n(-c3ccc(C(F)(F)F)cc3)c3ccc(NS(=O)(=O)c4ccc(F)cc4)cc3c2n1` [Example T-187], the IC50 (in experiment [1]; in the experiment with YAP-TEAD) was at most 1000 nM each time.
For `CCS(=O)(=O)Nc1ccc2c(c1)c1nn(C)cc1c(=O)n2-c1ccc(C(F)(F)F)cc1` [Example T-188], the IC50 (in experiment [1]; in the experiment on YAP-TEAD) was at most 1000 nM each time.
For `Cc1ccc(S(=O)(=O)Nc2ccc3c(c2)c2nn(C)cc2c(=O)n3-c2ccc(C(F)(F)F)cc2)cc1` [Example T-189], the IC50 (in experiment [1]; in the experiment on YAP-TEAD) was at most 1000 nM each time.
Regarding `Cn1cc2c(=O)n(-c3ccc(C(F)(F)F)cc3)c3ccc(NS(C)(=O)=O)cc3c2n1` [Example T-190], the IC50 (in experiment [1]; in the experiment on YAP-TEAD) was at most 1000 nM in each case.
With `Cn1cc2c(=O)n(-c3ccc(C(F)(F)F)cc3)c3ccc(NS(=O)(=O)C(F)(F)F)cc3c2n1` [Example T-191], the IC50 (in experiment [1]; in the experiment on YAP-TEAD) was at most 1000 nM in each case.
As to `COCCOC(=O)Nc1ccc2c(c1)c1nn(C)cc1c(=O)n2-c1ccc(C(F)(F)F)cc1` [Example T-192], the IC50 (in experiment [1]; in the experiment on YAP-TEAD) was at most 1000 nM each time.
For the compound `CCOC(=O)Nc1ccc2c(c1)c1nn(C)cc1c(=O)n2-c1ccc(C(F)(F)F)cc1` [Example T-193], the IC50 (in experiment [1]; with YAP-TEAD) was at most 1000 nM in each case.
On to `CC(C)OC(=O)Nc1ccc2c(c1)c1nn(C)cc1c(=O)n2-c1ccc(C(F)(F)F)cc1` [Example T-194], for which the IC50 (in experiment [1]; with YAP-TEAD) was at most 1000 nM throughout.
For `CNS(=O)(=O)c1ccc2c(c1)c1c(cnn1C)c(=O)n2-c1ccc(C(F)(F)F)cc1` [Example T-195], the IC50 (in experiment [1]; with YAP-TEAD) was 1000 to 5000 nM in each case.
Regarding `CNS(=O)(=O)c1ccc2c(c1)c1ccccc1c(=O)n2-c1ccc(C(F)(F)F)cc1` [Example T-199], the IC50 (in experiment [1]; with YAP-TEAD) was 1000 to 5000 nM throughout.
`C[C@H](NC(=O)c1ccc2c(c1)c1nn(C)cc1c(=O)n2-c1ccc(S(F)(F)(F)(F)F)cc1)c1ccccn1` [Example T-227]: the IC50 (in experiment [1]; with YAP-TEAD) was at most 1000 nM throughout.
Turning to `C[C@H](NC(=O)c1ccc2c(c1)c1nn(C)cc1c(=O)n2-c1ccc(OC(F)(F)F)cc1)c1ccccn1` [Example T-229], the IC50 (in experiment [1]; in the experiment on YAP-TEAD) was at most 1000 nM in each case.
`C[C@H](NC(=O)c1ccc2c(c1)c1nn(C)cc1c(=O)n2-c1ccc(OC(F)(F)F)cc1)c1ccccc1` [Example T-230]: the IC50 (in experiment [1]; in the experiment on YAP-TEAD) was at most 1000 nM throughout.
For `C=CC(=O)Nc1ccc2c(c1)c1nn(C)cc1c(=O)n2-c1ccc(S(F)(F)(F)(F)F)cc1` [Example T-231], the IC50 (in experiment [1]; in the experiment with YAP-TEAD) was at most 1000 nM each time.
Consider `C=CC(=O)Nc1ccc2c(c1)c1nn(C)cc1c(=O)n2-c1ccc(OC(F)(F)F)cc1` [Example T-232], for which the IC50 (in experiment [1]; in the experiment on YAP-TEAD) was at most 1000 nM in each case.
For `CC(C)/C=C/C(=O)Nc1ccc2c(c1)c1nn(C)cc1c(=O)n2-c1ccc(C(F)(F)F)cc1` [Example T-233], the IC50 (in experiment [1]; in the experiment with YAP-TEAD) was at most 1000 nM in each case.
Turning to `CC/C=C/C(=O)Nc1ccc2c(c1)c1nn(C)cc1c(=O)n2-c1ccc(C(F)(F)F)cc1` [Example T-234], the IC50 (in experiment [1]; with YAP-TEAD) was at most 1000 nM throughout.
As for `C=C(F)C(=O)Nc1ccc2c(c1)c1nn(C)cc1c(=O)n2-c1ccc(C(F)(F)F)cc1` [Example T-235], the IC50 (in experiment [1]; with YAP-TEAD) was at most 1000 nM each time.
`C=C(C)C(=O)Nc1ccc2c(c1)c1nn(C)cc1c(=O)n2-c1ccc(C(F)(F)F)cc1` [Example T-236]: the IC50 (in experiment [1]; in the experiment with YAP-TEAD) was at most 1000 nM each time.
Take `C#CC(=O)Nc1ccc2c(c1)c1nn(C)cc1c(=O)n2-c1ccc(C(F)(F)F)cc1` [Example T-237]: the IC50 (in experiment [1]; in the experiment on YAP-TEAD) was at most 1000 nM in each case.
Consider `CC#CC(=O)Nc1ccc2c(c1)c1nn(C)cc1c(=O)n2-c1ccc(C(F)(F)F)cc1` [Example T-238], for which the IC50 (in experiment [1]; with YAP-TEAD) was at most 1000 nM throughout.
Consider `C/C=C/C(=O)Nc1ccc2c(c1)c1nn(C)cc1c(=O)n2-c1ccc(C(F)(F)F)cc1` [Example T-239], for which the IC50 (in experiment [1]; in the experiment with YAP-TEAD) was at most 1000 nM in each case.
As to `C=CC(=O)Nc1cnc2c(c1)c1cscc1c(=O)n2-c1ccc(C(F)(F)F)cc1` [Example T-240], the IC50 (in experiment [1]; in the experiment with YAP-TEAD) was at most 1000 nM throughout.
`C=CC(=O)Nc1cnc2c(c1)c1nn(C)cc1c(=O)n2-c1ccc(C(F)(F)F)cc1` [Example T-241]: the IC50 (in experiment [1]; in the experiment with YAP-TEAD) was at most 1000 nM throughout.
For `C=CC(=O)Nc1cnc2c(c1)c1ccccc1c(=O)n2-c1ccc(C(F)(F)F)cc1` [Example T-242], the IC50 (in experiment [1]; with YAP-TEAD) was at most 1000 nM throughout.
In the case of `C[C@H](NC(=O)c1cnc2c(c1)c1nn(C)cc1c(=O)n2-c1ccc(C(F)(F)F)cc1)c1ccccn1` [Example T-243], the IC50 (in experiment [1]; in the experiment on YAP-TEAD) was at most 1000 nM each time.
For `C[C@H](NC(=O)c1cnc2c(c1)c1ccccc1c(=O)n2-c1ccc(C(F)(F)F)cc1)c1ccccn1` [Example T-244], the IC50 (in experiment [1]; in the experiment with YAP-TEAD) was at most 1000 nM throughout.
With `C[C@H](NC(=O)c1cnc2c(c1)c1c(c(=O)n2-c2ccc(C(F)(F)F)cc2)CCC1)c1ccccn1` [Example T-245], the IC50 (in experiment [1]; in the experiment on YAP-TEAD) was at most 1000 nM in each case.
Consider `C[C@H](NC(=O)c1cnc2c(c1)c1cscc1c(=O)n2-c1ccc(C(F)(F)F)cc1)c1ccccn1` [Example T-246], for which the IC50 (in experiment [1]; in the experiment on YAP-TEAD) was at most 1000 nM in each case.
With `C[C@H](NC(=O)c1cnc2c(c1)C1CCCCC1C(=O)N2c1ccc(C(F)(F)F)cc1)c1ccccn1` (stereo partly shown) [Example T-247], the IC50 (in experiment [1]; with YAP-TEAD) was at most 1000 nM each time.
`C[C@H](NC(=O)c1ccc2c(c1)c1ccccc1c(=O)n2-c1ccc(C(F)(F)F)cn1)c1ccccn1` [Example T-248]: the IC50 (in experiment [1]; in the experiment on YAP-TEAD) was at most 1000 nM in each case.
Take `C[C@H](NC(=O)c1ccc2c(c1)c1c(c(=O)n2-c2ccc(C(F)(F)F)cc2)CCC1)c1ccccn1` [Example T-249]: the IC50 (in experiment [1]; in the experiment with YAP-TEAD) was at most 1000 nM in each case.
For the compound `C[C@H](NC(=O)c1ccc2c(c1)c1c(c(=O)n2-c2ccc(C(F)(F)F)cc2)CN(Cc2ccccc2)C1)c1ccccn1` [Example T-251], the IC50 (in experiment [1]; in the experiment with YAP-TEAD) was 1000 to 5000 nM throughout.
On to `C[C@H](NC(=O)c1ccc2c(c1)c1ncccc1c(=O)n2-c1ccc(C(F)(F)F)cc1)c1ccccn1` [Example T-252], for which the IC50 (in experiment [1]; with YAP-TEAD) was at most 1000 nM throughout.
For `C[C@H](NC(=O)c1ccc2c(c1)c1cccnc1c(=O)n2-c1ccc(C(F)(F)F)cc1)c1ccccn1` [Example T-254], the IC50 (in experiment [1]; with YAP-TEAD) was at most 1000 nM in each case.
With `Cc1ccc2c(=O)n(-c3ccc(C(F)(F)F)cc3)c3ccc(C(=O)N[C@@H](C)c4ccccn4)cc3c2c1` [Example T-255], the IC50 (in experiment [1]; in the experiment with YAP-TEAD) was at most 1000 nM each time.
With `Cc1ccc2c(c1)c(=O)n(-c1ccc(C(F)(F)F)cc1)c1ccc(C(=O)N[C@@H](C)c3ccccn3)cc21` [Example T-256], the IC50 (in experiment [1]; in the experiment with YAP-TEAD) was at most 1000 nM throughout.
